Data: patent US12281149B2, “Modulators of G-protein coupled receptors” (priority 2021, dated 2025)
*1 amine or outer side, *2 acyl side, *3 side chain or, on linkers, in order; H or OH if unused. Where a SMILES comes first, the peptide text is derived from it. Side-chain parts run from the residue outwards. [ ]: non-standard residue; d: D form. The star is where a group is joined. Isobutyryl(2-(3-CN-5-F-Ph)) = CC(C)(C(=O)*)c1cc(F)cc(C#N)c1; C20 diacid = O=C(O)CCCCCCCCCCCCCCCCCCC(=O)*; γGlu = O=C(O)[C@H](CCC(=O)[*:2])N[*:1]; X21 = O=C(C(CN[*:1])C(F)(F)F)[*:2]; AEEA = NCCOCCOCC(=O)O; Aib = CC(C)(N)C(=O)O; βAla = NCCC(=O)O

Assays:
Type in all cases: cell-based
GIP receptor [1] = target: T1, GIP receptor (Homo sapiens, UniProt P48546); assay: HitHunter cAMP assay, GIP receptor; conditions: for EC50: CHO cells stably expressing GIP receptor, cAMP accumulation, 30 min, read-out: EC50 GIP-1R; for Emax: CHO cells, cAMP, normalized to maximum signal from GIP (high) and DMSO (low), read-out: Emax GIP-1R
T1 sequence (P48546 22-466): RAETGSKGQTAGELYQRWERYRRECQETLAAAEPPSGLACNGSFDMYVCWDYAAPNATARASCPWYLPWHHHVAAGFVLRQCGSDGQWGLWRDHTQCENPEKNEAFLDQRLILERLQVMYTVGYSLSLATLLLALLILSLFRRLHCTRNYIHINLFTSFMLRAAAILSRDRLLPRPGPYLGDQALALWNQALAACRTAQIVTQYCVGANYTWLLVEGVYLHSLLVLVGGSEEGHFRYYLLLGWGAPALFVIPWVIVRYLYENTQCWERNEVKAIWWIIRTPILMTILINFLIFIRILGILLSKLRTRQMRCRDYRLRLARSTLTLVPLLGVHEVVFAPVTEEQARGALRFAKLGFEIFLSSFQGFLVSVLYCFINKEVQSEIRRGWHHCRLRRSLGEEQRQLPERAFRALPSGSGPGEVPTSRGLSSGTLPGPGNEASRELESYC
Method: CAMP accumulation was measured in Chinese hamster ovary (CHO) cells stably expressing the human GLP-1 receptor or GIP receptor using the HitHunter CAMP Assay for Small Molecules Kit (Eurofins). Briefly, cells were grown in Ham's F12 Nutrient Mix with 10% FBS and lifted with Cell dissociation buffer, Enzyme free, PBS based (ThermoFisher). Cells were pelleted and resuspended in Hank's buffered saline solution with 10 mM Hepes and 625 μM 3-isobutyl-1-methylxanthine. The antibody reagent was then added to cells at a 1:2 ratio and 5 μL of mixture was seeded in 384-well small volume white assay plates, at 10,000 cells/well. Cells were then treated with 50 nl compound in DMSO using an ECHO 550 acoustic dispenser (Labcyte) in a 20-point dose response format in triplicate for 30 min. Cells were the lysed and detection reagents added according to the manufacturer's protocol. After overnight incubation, luminescence was measured using a Perkin Elmer Envision plate reader. Raw data was normalized to the maximum signal from GLP-1 or GIP (high) and DMSO (low). Dose response curves were analyzed using GraphPad Prism 9.0.

GIP receptor [2] = target: T1, GIP receptor; assay: PathHunter β-arrestin assay, GIP receptor; parameters: host or cells: PathHunter CHO-K1 GIPR β-Arrestin Cell Line; conditions: β-arrestin-2 recruitment, PathHunter CHO-K1 GIPR β-Arrestin Cell Line, 90 min at 37° C.; normalized to GIP; read-out: GIPR β Arrestin EC50
GLP-1 receptor [3] = target: T2, GLP-1 receptor (Homo sapiens, UniProt P43220); assay: HitHunter cAMP assay, GLP-1 receptor; conditions: for EC50: CHO cells stably expressing human GLP-1 receptor, cAMP accumulation, 30 min, read-out: EC50 GLP-1R; for Emax: CHO cells, cAMP, normalized to maximum signal from GLP-1 (high) and DMSO (low), read-out: Emax GLP-1R
T2 sequence (P43220 24-463): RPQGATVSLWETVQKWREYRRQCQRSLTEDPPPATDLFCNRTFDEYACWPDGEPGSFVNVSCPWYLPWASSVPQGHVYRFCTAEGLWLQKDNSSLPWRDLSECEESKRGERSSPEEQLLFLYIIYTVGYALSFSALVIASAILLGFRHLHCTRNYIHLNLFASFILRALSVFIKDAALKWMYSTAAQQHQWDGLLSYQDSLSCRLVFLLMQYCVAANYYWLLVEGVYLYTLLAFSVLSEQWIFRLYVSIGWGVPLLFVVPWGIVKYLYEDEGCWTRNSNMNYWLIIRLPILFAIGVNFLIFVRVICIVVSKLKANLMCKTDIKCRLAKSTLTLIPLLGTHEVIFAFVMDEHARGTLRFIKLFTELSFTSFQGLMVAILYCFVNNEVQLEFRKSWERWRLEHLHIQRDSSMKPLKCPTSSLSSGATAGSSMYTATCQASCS

GLP-1 receptor [4] = target: T2, GLP-1 receptor; assay: PathHunter β-arrestin assay, GLP-1 receptor; parameters: host or cells: PathHunter CHO-K1 GLP1R β-Arrestin Cell Line; conditions: β-arrestin-2 recruitment, PathHunter CHO-K1 GLP1R β-Arrestin Cell Line, 90 min at 37° C.; normalized to GLP-1; read-out: GLP-1R β Arrestin EC50

Compound	EC50 (GIP receptor [1]) [nM]	Emax (GIP receptor [1]) [%]	EC50 (GIP receptor [2]) [nM]	EC50 (GLP-1 receptor [3]) [nM]	Emax (GLP-1 receptor [3]) [%]	EC50 (GLP-1 receptor [4]) [nM]
CC[C@H](C)[C@H](NC(=O)[C@H](CC(C)C)NC(=O)[C@H](Cc1c[nH]c2ccccc12)NC(=O)[C@H](CCC(N)=O)NC(=O)[C@@H](NC(=O)[C@H](Cc1ccccc1)NC(=O)[C@H](C)NC(=O)[C@H](CCCCNC(=O)COCCOCCNC(=O)COCCOCCNC(=O)CC[C@H](NC(=O)CCCCCCCCCCCCCCCCCCC(=O)O)C(=O)O)NC(=O)[C@H](CCC(N)=O)NC(=O)[C@H](C)NC(=O)[C@@H](NC(=O)[C@H](CCCCN)NC(=O)[C@H](CC(=O)O)NC(=O)[C@H](CC(C)C)NC(=O)C(C)(C)NC(=O)[C@@H](NC(=O)[C@H](CO)NC(=O)[C@H](Cc1ccc(O)cc1)NC(=O)[C@H](CC(=O)O)NC(=O)[C@H](CO)NC(=O)[C@@H](NC(=O)[C@H](Cc1ccccc1)NC(=O)[C@@H](NC(=O)CNC(=O)[C@H](CCC(=O)O)NC(=O)C(CNC(=O)C(C)(C)c1cc(F)cc(C#N)c1)C(F)(F)F)[C@@H](C)O)[C@@H](C)O)[C@@H](C)CC)[C@@H](C)CC)C(C)C)C(=O)N[C@@H](C)C(=O)NCC(=O)NCC(=O)N1CCC[C@H]1C(=O)N[C@@H](CO)C(=O)N[C@@H](CO)C(=O)NCC(=O)N[C@@H](C)C(=O)N1CCC[C@H]1C(=O)N1CCC[C@H]1C(=O)N1CCC[C@H]1C(=O)N[C@@H](CO)C(N)=O (stereo partly drawn) [Compound 165] ({Isobutyryl(2-(3-CN-5-F-Ph))}-[X21]EGTFTSDYSI[Aib]LDKIAQK([AEEA-AEEA-γGlu-C20 diacid])AFVQWLIAGGPSSGAPPPS-NH2)	100 to 1000	92	> 1000	10 to 100	111	> 1000
CC[C@H](C)[C@H](NC(=O)[C@H](CC(C)C)NC(=O)[C@H](Cc1c[nH]c2ccccc12)NC(=O)[C@H](CCC(N)=O)NC(=O)[C@@H](NC(=O)[C@H](Cc1ccccc1)NC(=O)[C@H](C)NC(=O)[C@H](CCCCNC(=O)COCCOCCNC(=O)COCCOCCNC(=O)CC[C@H](NC(=O)CCCCCCCCCCCCCCCCCCC(=O)O)C(=O)O)NC(=O)[C@H](CCC(N)=O)NC(=O)[C@H](C)NC(=O)[C@@H](NC(=O)[C@H](CCCCN)NC(=O)[C@H](CC(=O)O)NC(=O)[C@H](CC(C)C)NC(=O)C(C)(C)NC(=O)[C@@H](NC(=O)[C@H](CO)NC(=O)[C@H](Cc1ccc(O)cc1)NC(=O)[C@H](CC(=O)O)NC(=O)[C@H](CO)NC(=O)[C@@H](NC(=O)[C@H](Cc1ccccc1)NC(=O)[C@@H](NC(=O)CNC(=O)[C@H](CCC(=O)O)NC(=O)CCNC(=O)C(C)(C)c1cc(F)cc(C#N)c1)[C@@H](C)O)C(C)C)[C@@H](C)CC)[C@@H](C)CC)C(C)C)C(=O)N[C@@H](C)C(=O)NCC(=O)NCC(=O)N1CCC[C@H]1C(=O)N[C@@H](CO)C(=O)N[C@@H](CO)C(=O)NCC(=O)N[C@@H](C)C(=O)N1CCC[C@H]1C(=O)N1CCC[C@H]1C(=O)N1CCC[C@H]1C(=O)N[C@@H](CO)C(N)=O [Compound 166] ({Isobutyryl(2-(3-CN-5-F-Ph))-βAla}-EGTFVSDYSI[Aib]LDKIAQK([AEEA-AEEA-γGlu-C20 diacid])AFVQWLIAGGPSSGAPPPS-NH2)	1 to 10	108	< 1000	10 to 100	77	> 1000
